Source: US20250320193A1, “OXOISOINDOLINYL SUBSTITUTED PIPERIDINEDIONE DERIVATIVE AND USE THEREOF” (GLUETACS THERAPEUTICS (SHANGHAI) CO., LTD., priority 2022, published 2025)

Molecular target: human Cereblon WT GST-tagged protein (Homo sapiens (Human), UniProt Q96SW2)
Test: CRBN-binding affinity, HTRF (CEREBLON BINDING kit, CISBIO)
Settings: HTRF inhibitory activity
Method: I. Determination of CRBN-binding affinity of compounds of the present disclosure:
The CEREBLON BINDING kits (specification: 10,000 tests; product number: Catalog #64BDCRBNPEH; CISBIO company) was used to determine the CRBN binding ability of the compounds to be tested through a HTRF method (homogeneous time-resolved fluorescence). The specific methods are as follows: • 1. […] Then, 2.5 μL of human Cereblon WT GST-tagged protein solution was added to each well. Finally, 5 μL of the thoroughly mixed Thalidomide-Red reagent and GST Eu antibody working solution were added to each of the aforementioned wells. […] The blank control wells were sequentially added with 2.5 μL of diluent #9 (1X) solution, 2.5 μL of PROTAC binding buffer, and 5 μL of thoroughly mixed Thalidomide-Red reagent and GST Eu antibody working solution. • 4.
The corresponding CRBN binding inhibition rate was calculated using the following method: […]
OD 620 nmcompound is the absorbance value of each well of the compounds to be tested of the present disclosure at an emission wavelength of 620 nm. […] OD 620 nmcontrol is the absorbance value of the blank control well at an emission wavelength of 620 nm. […] OD 620 nmStd0 is the absorbance value of the solvent control well at an emission wavelength of 620 nm.

human Cereblon WT GST-tagged protein, sequence (Q96SW2 whole entry): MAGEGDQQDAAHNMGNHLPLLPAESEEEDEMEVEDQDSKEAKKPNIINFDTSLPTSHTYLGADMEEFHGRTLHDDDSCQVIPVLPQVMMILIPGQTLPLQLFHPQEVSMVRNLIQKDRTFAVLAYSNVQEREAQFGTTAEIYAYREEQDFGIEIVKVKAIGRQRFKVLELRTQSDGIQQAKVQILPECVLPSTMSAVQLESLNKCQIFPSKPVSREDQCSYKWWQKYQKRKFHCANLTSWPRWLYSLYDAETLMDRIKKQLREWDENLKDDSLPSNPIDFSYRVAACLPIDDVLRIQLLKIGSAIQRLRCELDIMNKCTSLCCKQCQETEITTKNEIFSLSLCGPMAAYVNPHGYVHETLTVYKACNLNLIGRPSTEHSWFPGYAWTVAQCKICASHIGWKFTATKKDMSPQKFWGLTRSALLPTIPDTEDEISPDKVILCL

O=C1CCC(N2Cc3cc(CN4CCN(C(c5ccc(Cl)cc5)c5ccc(Cl)cc5)CC4)cc(F)c3C2=O)C(=O)N1 (stereo not shown) [GT-03568, 3-(5-((4-(bis(4-chlorophenyl)methyl)piperazin-1-yl)methyl)-7-fluoro-1-oxoisoindolin-2-yl)piperidine-2,6-dione]
IC50: 1000 to 1900 nM

O=C1CCC(N2Cc3c(ccc(CN4C[C@H]5C[C@@H]4CN5C(c4ccccc4)c4ccccc4)c3F)C2=O)C(=O)N1 (stereo partly drawn) [GT-03573, 3-(5-(((1R,4R)-5-benzhydryl-2,5-diazabicyclo[2.2.1]heptan-2-yl)methyl)-4-fluoro-1-oxoisoindolin-2-yl)piperidine-2,6-dione]
IC50: < 500 nM

O=C1CCC(N2Cc3cc(CN4C[C@H]5C[C@@H]4CN5C(c4ccccc4)c4ccccc4)cc(F)c3C2=O)C(=O)N1 (stereo partly drawn) [GT-03576, 3-(5-(((1R,4R)-5-benzhydryl-2,5-diazabicyclo[2.2.1]heptan-2-yl)methyl)-7-fluoro-1-oxoisoindolin-2-yl)piperidine-2,6-dione]
IC50: < 500 nM

C[C@@H]1CN(C(c2ccccc2)c2ccccc2)CCN1Cc1cc(F)c2c(c1)CN(C1CCC(=O)NC1=O)C2=O (stereo partly drawn) [GT-03577, 3-(5-(((R)-4-benzhydryl-2-methylpiperazin-1-yl)methyl)-7-fluoro-1-oxoisoindolin-2-yl)piperidine-2,6-dione]
IC50: < 500 nM

O=C1CCC(N2Cc3c(CN4CCN(C(c5ccccc5)c5ccccc5)CC4)cccc3C2=O)C(=O)N1 (stereo not shown) [GT-03646, 3-(4-((4-benzhydrylpiperazin-1-yl)methyl)-1-oxoisoindolin-2-yl)piperidine-2,6-dione]
IC50: 500 to 1000 nM

O=C1CCC(N2Cc3cc(CN4CCN(C(c5ccccc5)c5ccccn5)CC4)cc(F)c3C2=O)C(=O)N1 (stereo not shown) [GT-03834, 3-(7-fluoro-1-oxo-5-((4-(phenyl(pyridin-2-yl)methyl)piperazin-1-yl)methyl)isoindolin-2-yl)piperidine-2,6-dione]
IC50: < 500 nM

CC1CN(C(c2ccccc2)c2ccccc2)CC(C)N1Cc1cc(F)c2c(c1)CN(C1CCC(=O)NC1=O)C2=O (stereo not shown) [GT-03874, 3-(5-((4-benzhydryl-2,6-dimethylpiperazin-1-yl)methyl)-7-fluoro-1-oxoisoindolin-2-yl)piperidine-2,6-dione]
IC50: < 500 nM

O=C1CCC(N2Cc3c(CN4CCN(C(c5cccc(F)c5)c5cccc(F)c5)CC4)cccc3C2=O)C(=O)N1 (stereo not shown) [GT-03875, 3-(4-((4-(bis(3-fluorophenyl)methyl)piperazin-1-yl)methyl)-1-oxoisoindolin-2-yl)piperidine-2,6-dione]
IC50: 500 to 1000 nM

CC1(C)CN(Cc2ccc3c(c2)CN(C2CCC(=O)NC2=O)C3=O)CCN1C(c1ccccc1)c1ccccc1 (stereo not shown) [GT-04165, 3-(5-((4-benzhydryl-3,3-dimethylpiperazin-1-yl)methyl)-1-oxoisoindolin-2-yl)piperidine-2,6-dione]
IC50: < 500 nM

CC1(C)CN(Cc2ccc3c(c2F)CN(C2CCC(=O)NC2=O)C3=O)CCN1C(c1ccccc1)c1ccccc1 (stereo not shown) [GT-04166, 3-(5-((4-benzhydryl-3,3-dimethylpiperazin-1-yl)methyl)-4-fluoro-1-oxoisoindolin-2-yl)piperidine-2,6-dione]
IC50: 500 to 1000 nM

O=C1CCC(N2Cc3cc(CN4C(=O)c5cccc6cccc(c56)C4=O)ccc3C2=O)C(=O)N1 (stereo not shown) [GT-04244, 2-((2-(2,6-dioxopiperidin-3-yl)-1-oxoisoindolin-5-yl)methyl)-1H-benzo[de]isoquinoline-1,3(2H)-dione]
IC50: < 500 nM

O=C1CCC(N2Cc3ccc(CN4CCN(C(c5ccccc5)c5ccccc5)CC4)cc3C2=O)C(=O)N1 (stereo not shown) [GT-05686, 3-(6-((4-benzhydrylpiperazin-1-yl)methyl)-1-oxoisoindolin-2-yl)piperidine-2,6-dione]
IC50: 1000 to 1900 nM

O=C1CCC(N2Cc3cc(CN4CCN(C(c5ccccn5)c5ccccn5)CC4)cc(F)c3C2=O)C(=O)N1 (stereo not shown) [GT-05714, 3-(5-((4-(di(pyridin-2-yl)methyl)piperazin-1-yl)methyl)-7-fluoro-1-oxoisoindolin-2-yl)piperidine-2,6-dione]
IC50: 1000 to 1900 nM

O=C1CCC(N2Cc3c(CN4CCN(C(c5ccccn5)c5ccccn5)CC4)cccc3C2=O)C(=O)N1 (stereo not shown) [GT-05715, 3-(4-((4-(di(pyridin-2-yl)methyl)piperazin-1-yl)methyl)-1-oxoisoindolin-2-yl)piperidine-2,6-dione]
IC50: 1000 to 1900 nM

O=C1CCC(N2Cc3c(ccc(CN4CCN(C(c5cccnc5)c5cccnc5)CC4)c3F)C2=O)C(=O)N1 (stereo not shown) [GT-05716, 3-(5-((4-(di(pyridin-3-yl)methyl)piperazin-1-yl)methyl)-4-fluoro-1-oxoisoindolin-2-yl)piperidine-2,6-dione]
IC50: < 500 nM

O=C1CCC(N2Cc3ccc(CN4CCN(C(c5ccc(F)cc5)c5ccc(F)cc5)CC4)cc3C2=O)C(=O)N1 (stereo not shown) [GT-05719, 3-(6-((4-(bis(4-fluorophenyl)methyl)piperazin-1-yl)methyl)-1-oxoisoindolin-2-yl)piperidine-2,6-dione]
IC50: 500 to 1000 nM

O=C1CCC(N2Cc3cccc(CN4CCN(C(c5ccc(F)cc5)c5ccc(F)cc5)CC4)c3C2=O)C(=O)N1 (stereo not shown) [GT-05720, 3-(7-((4-(bis(4-fluorophenyl)methyl)piperazin-1-yl)methyl)-1-oxoisoindolin-2-yl)piperidine-2,6-dione]
IC50: 1000 to 1900 nM

O=C1CCC(N2Cc3c(C(=O)N4CCN(C(c5ccccc5)c5ccccc5)CC4)cccc3C2=O)C(=O)N1 (stereo not shown) [GT-05721, 3-(4-(4-benzhydrylpiperazine-1-carbonyl)-1-oxoisoindolin-2-yl)piperidine-2,6-dione]
IC50: 500 to 1000 nM

O=C1CCC(N2C(=O)c3ccc(CN4C5CC4CN(C(c4ccccc4)c4ccccc4)C5)cc3C2=O)C(=O)N1 (stereo not shown) [GT-05728, 5-((3-benzhydryl-3,6-diazabicyclo[3.1.1]heptan-6-yl)methyl)-2-(2,6-dioxopiperidin-3-yl) isoindoline-1,3-dione]
IC50: 1000 to 1900 nM

O=C1CCC(N2Cc3ccc(CN4CCN(C(c5ccc(Cl)cc5)c5ccc(Cl)cc5)CC4)cc3C2=O)C(=O)N1 (stereo not shown) [GT-05735, 3-(6-((4-(bis(4-chlorophenyl)methyl)piperazin-1-yl)methyl)-1-oxoisoindolin-2-yl)piperidine-2,6-dione]
IC50: 1000 to 1900 nM

O=C1CCC(N2Cc3cccc(CN4CCN(C(c5ccc(Cl)cc5)c5ccc(Cl)cc5)CC4)c3C2=O)C(=O)N1 (stereo not shown) [GT-05736, 3-(7-((4-(bis(4-chlorophenyl)methyl)piperazin-1-yl)methyl)-1-oxoisoindolin-2-yl)piperidine-2,6-dione]
IC50: 1000 to 1900 nM

O=C1CCC(N2Cc3cc(NN4CCN(C(c5ccccc5)c5ccccc5)CC4)ccc3C2=O)C(=O)N1 (stereo not shown) [GT-05743, 3-(5-((4-benzhydrylpiperazin-1-yl)amino)-1-oxoisoindolin-2-yl)piperidine-2,6-dione]
IC50: 1000 to 1900 nM

O=C1CCC(N2Cc3cc(C=C4CN(C(c5ccccc5)c5ccccc5)C4)ccc3C2=O)C(=O)N1 (stereo not shown) [GT-05745, 3-(5-((1-benzhydrylazetidin-3-ylidene)methyl)-1-oxoisoindolin-2-yl)piperidine-2,6-dione]
IC50: < 500 nM

O=C1CCC(N2Cc3cc(NC4CCN(C(c5ccccc5)c5ccccc5)CC4)ccc3C2=O)C(=O)N1 (stereo not shown) [GT-05864, 3-(5-((1-benzhydrylpiperidin-4-yl)amino)-1-oxoisoindolin-2-yl)piperidine-2,6-dione]
IC50: < 500 nM

O=C1CCC(N2Cc3cc(N4CC5CCC(C4)N5C(c4ccccc4)c4ccccc4)ccc3C2=O)C(=O)N1 (stereo not shown) [GT-05865, 3-(5-(8-benzhydryl-3,8-diazabicyclo[3.2.1]octan-3-yl)-1-oxoisoindolin-2-yl)piperidine-2,6-dione]
IC50: 500 to 1000 nM
